Patent US11958860B2, “Crystal form of compound, and preparation method therefor and use thereof” (JIANGSU KANION PHARMACEUTICAL CO., LTD., priority 2021, dated 2024)

Columns and labels:
Format in all cases: physicochemical
[1] = Dynamic vapor sorption (DVS) hygroscopicity test; conditions: for water absorption percentage / water loss percentage: 25 °C
Description: Dynamic vapor sorption (DVS) test/hygroscopicity test is to quickly determine the increase and loss of sample moisture caused by a flowing carrier gas with a set relative humidity (RH). The sample is placed on a high-sensitivity and high-stability digital micro-balancer in a self-suspension state, and then the sorption/desorption of water vapor is detected by determining the increase/decrease of material mass, so as to determine the hygroscopicity of the sample.
In the present invention, test parameters of the DVS are as follows: device model: SMS DVS Intrinsic; 0-95% RH; temperature: 25° C.
A dynamic vapor sorption (DVS) device is used to investigate the moisture sorption and desorption of samples at a temperature of 25° C. and a relative humidity of 0-95%, so as to determine the hygroscopic sorption properties of different crystal forms.

[2] = Percentage of solvent or water in crystal form
Description: Thermo gravimetric analysis (TGA for short) is an analysis technique to determine the change of mass of substances with temperature under conditions of programmed temperature control. […] Thus, such thermo gravimetric analysis is suitable for detecting the loss of crystallization solvents or crystallization water molecules in crystalline substances or the process and magnitude of sublimation and decomposition of the sample, and can also effectively distinguish whether the substances contain the crystallization solvents or the crystallization water molecules.
In the present invention, test parameters of the TGA are as follows: device model: Netzsch TG 209F3; temperature range: 30-400° C.; scanning rate: 10 k/min; purge gas: 25 ml/min; and protective gas: 15 mL/min.

[3] = Transformation experiment between crystal forms (heating); conditions: heating temperature 120 °C, heating time 40 min
Description: Four crystal forms, such as Form A, Form B, Form C, and Form D, are experienced for mutual transformation experiment. Experimental conditions and results are as follows: […]

[4] = Comparison of crystal form stability (equilibrated suspension); conditions: conclusion from the crystal transformation results (Tables 2 and 3)
Description: 5 mg of each sample is taken and mixed with 1 ml of a solvent at 25° C. Experimental conditions and results are as follows: […]

SMILES	water absorption percentage ([1]; RH 65%)	water absorption percentage ([1]; RH 80%)	Percentage of solvent or water [2] [%]	Crystal form of product [3]	water loss percentage ([1]; RH 65%)	water loss percentage ([1]; RH 80%)	change in hygroscopicity and weight (DVS) ([1]; relative humidity of 0-95%, FIG. 5)	relative stability of crystal forms [4]
COc1cc2c(cc1OC)CN1CCc3cc4c(cc3C1C2)OCO4 (single isomer, unassigned) [Form C, S-(−)-2,3-methylenedioxy-5,8,13,13a-tetrahydro-10,11-dimethoxy-6H-dibenzo[a, g]quinolizine]	percentage (0.5%)	percentage (1.2%)	4.4	Form A	–	–	–	–
COc1cc2c(cc1OC)CN1CCc3cc4c(cc3C1C2)OCO4 (single isomer, unassigned) [Form D, S-(−)-2,3-methylenedioxy-5,8,13,13a-tetrahydro-10,11-dimethoxy-6H-dibenzo[a, g]quinolizine]	percentage (0.2%)	percentage (0.3%)	0.0	Form A	–	–	–	–
COc1cc2c(cc1OC)CN1CCc3cc4c(cc3C1C2)OCO4 (single isomer, unassigned) [Form B, S-(−)-2,3-methylenedioxy-5,8,13,13a-tetrahydro-10,11-dimethoxy-6H-dibenzo[a, g]quinolizine]	–	–	10.8	Form A	percentage (0.2%)	percentage (0.3%)	–	–
COc1cc2c(cc1OC)CN1CCc3cc4c(cc3[C@@H]1C2)OCO4 [Form A, S-(−)-2,3-methylenedioxy-5,8,13,13a-tetrahydro-10,11-dimethoxy-6H-dibenzo[a, g]quinolizine]	percentage (0.1%)	percentage (0.2%)	0.0	Form A	–	–	approximately 0.6%	most stable crystal form
